From patent publication US11780845B2 (Relay Therapeutics, Inc., priority 2019, dated 2023)

Assays:
FGFR2 = FGFR2 (Homo sapiens (Human), UniProt P21802); experiment: Biochemical FGFR2 Caliper assay
SNU-16 = experiment: Cell SNU-16 assay; type: cell-based
[1] = Homo sapiens, SNU-16, SNU-16 cells

Sequence of FGFR2 (P21802 22-821): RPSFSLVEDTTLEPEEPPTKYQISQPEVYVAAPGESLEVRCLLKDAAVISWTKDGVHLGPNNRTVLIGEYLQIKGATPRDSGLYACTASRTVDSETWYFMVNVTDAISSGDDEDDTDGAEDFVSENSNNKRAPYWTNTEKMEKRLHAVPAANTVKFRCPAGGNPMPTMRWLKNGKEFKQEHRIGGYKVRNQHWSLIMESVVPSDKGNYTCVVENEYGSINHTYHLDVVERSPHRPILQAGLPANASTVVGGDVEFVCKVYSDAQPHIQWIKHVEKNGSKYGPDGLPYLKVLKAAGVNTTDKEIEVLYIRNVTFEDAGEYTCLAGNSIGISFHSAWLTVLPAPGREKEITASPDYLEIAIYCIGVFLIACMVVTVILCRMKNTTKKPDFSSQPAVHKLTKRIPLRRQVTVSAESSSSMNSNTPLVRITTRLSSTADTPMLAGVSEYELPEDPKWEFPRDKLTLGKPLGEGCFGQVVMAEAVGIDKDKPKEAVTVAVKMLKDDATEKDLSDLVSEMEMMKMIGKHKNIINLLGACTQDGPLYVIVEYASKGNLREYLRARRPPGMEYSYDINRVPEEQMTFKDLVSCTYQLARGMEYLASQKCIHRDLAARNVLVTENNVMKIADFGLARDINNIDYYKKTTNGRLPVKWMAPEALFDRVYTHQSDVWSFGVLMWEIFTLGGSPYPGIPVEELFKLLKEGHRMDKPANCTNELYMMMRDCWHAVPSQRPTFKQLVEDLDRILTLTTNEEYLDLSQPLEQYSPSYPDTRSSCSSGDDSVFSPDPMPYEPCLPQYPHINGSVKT

Row | IC50 (FGFR2) | IC50 (SNU-16; [1]) | IC50 (SNU-16; SNU-16 cells) | Structure (SMILES)
1 | 1 to 100 µM | 1 to 100 µM |  | COC(=O)Nc1ccc(-c2c(-c3ccc(C(=O)N4CCCC4)cc3)c3c(N)ncnc3n2C)cc1 [Example 902]
2 | 1 to 100 µM | 1 to 100 µM |  | C=C(C)C(=O)N1CC(c2c(-c3ccc(C(=O)N4CCCC4)cc3)c3c(N)ncnc3n2C)=C[C@@H]1C [Example 903]
3 | 1 to 100 µM | 1 to 100 µM |  | Cc1ccnc(Oc2ccc(-c3c(-c4ccc(NC(=O)C5=CCOC5)cc4)n(C)c4ncnc(N)c34)cc2)n1 [Example 904]
4 | < 0.1 µM | ≤ 0.1 µM |  | C=C(C)C(=O)Nc1ccc(-c2c(-c3ccc4c(c3)OCC4c3cccc(C)n3)c3c(N)ncnc3n2C)cc1 (stereo not drawn) [Example 907]
5 | 1 to 100 µM | 1 to 100 µM |  | C=C(C)C(=O)Nc1ccc(-c2c(-c3ccc(C(=O)NCC(C)C)c(OC)c3)c3c(N)ncnc3n2C)cc1 [Example 910]
6 | < 0.1 µM | ≤ 0.1 µM |  | C=C(C)C(=O)Nc1ccc(-c2c(-c3ccc(C(=O)NC4CCC4)c(OC)c3)c3c(N)ncnc3n2C)cc1 [Example 911]
7 | < 0.1 µM | ≤ 0.1 µM |  | C=C(C)C(=O)Nc1ccc(-c2c(-c3ccc(C(=O)NC4CC(F)(F)C4)c(OC)c3)c3c(N)ncnc3n2C)cc1 [Example 912]
8 | 1 to 100 µM | 0.25 to 1 µM |  | Cc1ccnc(Oc2ccc(-c3c(-c4ccc(-c5cnc(C#N)o5)cc4)n(C)c4ncnc(N)c34)cc2)n1 [Example 915]
9 | 1 to 100 µM | 0.1 to 0.25 µM |  | C=CC(=O)N1CCc2ccc(-c3c(-c4ccc(Oc5nccc(C)n5)cc4)c4c(N)ncnc4n3C)cc2C1 [Example 916]
10 | 1 to 100 µM | 0.25 to 1 µM |  | C=CC(=O)NCc1ccc(-c2c(-c3ccc(Oc4nccc(C)n4)cc3)c3c(N)ncnc3n2C)cc1 [Example 921]
11 | 0.25 to 1 µM | 0.25 to 1 µM |  | C=C(C)C(=O)Nc1ccc(-c2c(C3=CCN(C(=O)C4CCCC4)CC3)c3c(N)ncnc3n2C)cc1 [Example 922]
12 | 1 to 100 µM | 0.25 to 1 µM |  | C=C(C)C(=O)Nc1ccc(-c2c(C3=CCN(C(=O)N4CCCC4)CC3)c3c(N)ncnc3n2C)cc1 [Example 923]
13 | 1 to 100 µM |  | 1 to 100 µM | CC1=CCN(c2ccc(-c3c(-c4ccc(Oc5nccc(C)n5)cc4)c4c(N)ncnc4n3C)cc2)C1=O [Example 924]
14 | 1 to 100 µM | 1 to 100 µM |  | C=C(C)C(=O)Nc1ccc(-c2c(C3=CC[C@@H](C(=O)N4CCCC4)C[C@@H]3C)c3c(N)ncnc3n2C)cc1 [Example 937]
15 | 0.25 to 1 µM | 0.25 to 1 µM |  | C=CC(=O)NC(C)(C)c1ccc(-c2c(-c3ccc(Oc4nccc(C)n4)cc3)c3c(N)ncnc3n2C)cc1 [Example 943]
16 | 0.25 to 1 µM | 1 to 100 µM |  | C=C(C)C(=O)Nc1ccc(-c2c(-c3ccc(C(=O)NCC4(F)CCC4)c(OC)c3)c3c(N)ncnc3n2C)cc1 [Example 946]
17 | < 0.1 µM | ≤ 0.1 µM |  | C=Cc1ncc(-c2ccc(-c3c(-c4ccc(Oc5nccc(C)n5)cc4)c4c(N)ncnc4n3C)cc2)o1 [Example 947]
18 | 1 to 100 µM | 1 to 100 µM |  | Cc1ccnc(Oc2ccc(-c3c(-c4ccc(NCC5CO5)cc4)n(C)c4ncnc(N)c34)cc2)n1 (stereo not drawn) [Example 948]
19 | < 0.1 µM | ≤ 0.1 µM |  | Cc1ccnc(Oc2ccc(-c3c(-c4ccc(NC(=O)C5=COCC5)cc4)n(C)c4ncnc(N)c34)cc2)n1 [Example 952]

Row | IC50 (FGFR2) | IC50 (SNU-16; [1]) | IC50 (SNU-16; SNU-16 cells) | Structure (SMILES)
20 | < 0.1 µM | ≤ 0.1 µM |  | C=C(C)C(=O)Nc1ccc(-c2c(-c3ccc(C(=O)NC4(COC)CCC4)c(OC)c3)c3c(N)ncnc3n2C)cc1 [Example 956]
21 | 0.25 to 1 µM | ≤ 0.1 µM |  | Cc1ccnc(Oc2ccc(-c3c(-c4ccc(-c5cnc(C#N)s5)cc4)n(C)c4ncnc(N)c34)cc2)n1 [Example 959]
22 | < 0.1 µM | ≤ 0.1 µM |  | C=C(C)C(=O)Nc1ccc(-c2c(-c3ccc(C(=O)N[C@H]4C[C@@H](F)C4)c(OC)c3)c3c(N)ncnc3n2C)cc1 [Example 964]
23 | < 0.1 µM | ≤ 0.1 µM |  | C=C(C)C(=O)Nc1ccc(-c2c(-c3ccc(C(=O)N[C@H]4C[C@H](F)C4)c(OC)c3)c3c(N)ncnc3n2C)cc1 [Example 965]
24 | < 0.1 µM | ≤ 0.1 µM |  | C=C(C)C(=O)Nc1ccc(-c2c(-c3ccc(C(=O)N[C@H]4C[C@H](F)C4)c(COC)c3)c3c(N)ncnc3n2C)cc1 [Example 966]
25 | 1 to 100 µM | 1 to 100 µM |  | C=C(C)C(=O)Nc1ccc(-c2c(-c3ccc(C(=O)N[C@H]4C[C@@H](F)C4)c(COC)c3)c3c(N)ncnc3n2C)cc1 [Example 967]
26 | 0.25 to 1 µM | 0.25 to 1 µM |  | C#Cc1ncc(-c2c(-c3ccc(C(=O)N4CCCC4)cc3)c3c(N)ncnc3n2C)cn1 [Example 968]
27 | < 0.1 µM | ≤ 0.1 µM |  | C=C(C)C(=O)Nc1ccc(-c2c(C3=CCC(C(=O)N4CCCC4)CC3(F)F)c3c(N)ncnc3n2C)cc1 (stereo not drawn) [Example 969]
28 | 1 to 100 µM | 1 to 100 µM |  | C=C(C)C(=O)Nc1ccc(-c2c(-c3ccc(C(=O)N[C@H]4C[C@H](F)C4)c(OC(F)F)c3)c3c(N)ncnc3n2C)cc1 [Example 970]
29 | 0.25 to 1 µM | 0.25 to 1 µM |  | C=C(C)C(=O)Nc1ccc(-c2c(-c3ccc(C(=O)N[C@H]4C[C@@H](F)C4)c(OC(F)F)c3)c3c(N)ncnc3n2C)cc1 [Example 971]
30 | 1 to 100 µM | 1 to 100 µM |  | C=C(C)C(=O)Nc1ccc(-c2c(-c3ccc(C(=O)N[C@H]4C[C@@H](F)C4)c(OC4CC4)c3)c3c(N)ncnc3n2C)cc1 [Example 976]
31 | 0.25 to 1 µM | 0.25 to 1 µM |  | C=C(C)C(=O)Nc1ccc(-c2c(-c3ccc(C(=O)N[C@H]4C[C@H](F)C4)c(OC4CC4)c3)c3c(N)ncnc3n2C)cc1 [Example 978]
32 | < 0.1 µM | ≤ 0.1 µM |  | CC(=O)C(=O)Nc1ccc(-c2c(-c3ccc(C(=O)N4CCc5ccccc54)cc3)c3c(N)ncnc3n2C)cc1 [Example 980]
33 | < 0.1 µM | ≤ 0.1 µM |  | C=C(C)C(=O)Nc1ccc(-c2c(-c3ccc(C(=O)NCC4CCC4)c(OC)n3)c3c(N)ncnc3n2C)cc1 [Example 983]
34 | < 0.1 µM | ≤ 0.1 µM |  | C=Cc1ncc(-c2ccc(-c3c(-c4ccc(Oc5nccc(C)n5)cc4)c4c(N)ncnc4n3C)cc2)s1 [Example 984]
35 | 1 to 100 µM | 0.25 to 1 µM |  | C=CC(=O)N1CC=C(c2ccc(-c3c(-c4ccc(Oc5cccc(C)n5)cc4)c4c(N)ncnc4n3C)cc2)C1 [Example 989]
36 | < 0.1 µM | ≤ 0.1 µM |  | C=CC(=O)Nc1ccc(-c2c(-c3ccc(C(=O)NCC(C)C)cc3)c3c(N)ncnc3n2C)cc1 [Example 990]
37 | < 0.1 µM | ≤ 0.1 µM |  | C=C(C)C(=O)Nc1ccc(-c2c(C3=CC[C@H](C(=O)N4CCC[C@@H]4C)CC3)c3c(N)ncnc3n2C)cc1 [Example 991]
38 | 1 to 100 µM | 0.1 to 0.25 µM |  | C=C(C)C(=O)Nc1ccc(-c2c(C3=CC[C@@H](C(=O)N4CCCC[C@H]4C)CC3)c3c(N)ncnc3n2C)cc1 [Example 992]

Row | IC50 (FGFR2) | IC50 (SNU-16; [1]) | IC50 (SNU-16; SNU-16 cells) | Structure (SMILES)
39 | < 0.1 µM | ≤ 0.1 µM |  | C=C(C)C(=O)Nc1ccc(-c2c(C3=CC[C@@H](S(=O)(=O)N4CCCC4)CC3)c3c(N)ncnc3n2C)cc1 [Example 993]
40 | 1 to 100 µM | 0.1 to 0.25 µM |  | C=C(C)C(=O)Nc1ccc(-c2c(C3=CC[C@H](C(=O)N4CCCC[C@H]4C)CC3)c3c(N)ncnc3n2C)cc1 [Example 994]
41 | 1 to 100 µM | 0.25 to 1 µM |  | C=C(C)C(=O)Nc1ccc(-c2c(C3=CC[C@H](S(=O)(=O)N4CCCC4)CC3)c3c(N)ncnc3n2C)cc1 [Example 995]
42 | 0.25 to 1 µM | 0.1 to 0.25 µM |  | C=C(C)C(=O)Nc1ccc(-c2c(C3=CC[C@@H](C(=O)N4CC5CC4C5)CC3)c3c(N)ncnc3n2C)cc1 [Example 996]
43 | 1 to 100 µM | 0.25 to 1 µM |  | C=C(C)C(=O)Nc1ccc(-c2c(C3=CC[C@H](C(=O)N4CC5CC4C5)CC3)c3c(N)ncnc3n2C)cc1 [Example 997]
44 | < 0.1 µM | ≤ 0.1 µM |  | C=C(C)C(=O)Nc1ccc(-c2c(C3=CC[C@@H](C(=O)N4CCCC45CCC5)CC3)c3c(N)ncnc3n2C)cc1 [Example 998]
45 | < 0.1 µM | ≤ 0.1 µM |  | C=C(C)C(=O)Nc1ccc(-c2c(C3=CC[C@H](C(=O)N4CCCC45CCC5)CC3)c3c(N)ncnc3n2C)cc1 [Example 999]
46 | 1 to 100 µM |  | 0.25 to 1 µM | C#Cc1ncc(-c2c(-c3ccc(Oc4nccc(C)n4)cc3)c3c(N)ncnc3n2C)cn1 [Example 1000]
47 | < 0.1 µM | ≤ 0.1 µM |  | C=C(C)C(=O)Nc1ccc(-c2c(C3=CC[C@H](C(=O)N4CCCC4)CC3)c3c(N)ncnc3n2C)c(F)c1 [Example 1001]
48 | < 0.1 µM | ≤ 0.1 µM |  | C=C(C)C(=O)Nc1ccc(-c2c(C3=CC[C@@H](C(=O)N4CCCC4)CC3)c3c(N)ncnc3n2C)c(F)c1 [Example 1002]
49 | 0.25 to 1 µM | 0.1 to 0.25 µM |  | C=C(C)C(=O)Nc1ccc(-c2c(C3=CC[C@@H](C(=O)N4CCC[C@@H]4C)CC3)c3c(N)ncnc3n2C)cc1 [Example 1003]
50 | < 0.1 µM | ≤ 0.1 µM |  | C=CC(=O)N1CCN(c2cccc(-c3c(-c4ccc(Oc5cccc(C)n5)cc4)c4c(N)ncnc4n3C)c2)CC1 [Example 1004]
51 | 0.25 to 1 µM | 0.1 to 0.25 µM |  | C=CC(=O)NCc1cccc(-c2c(-c3ccc(Oc4cccc(C)n4)cc3)c3c(N)ncnc3n2C)c1 [Example 1005]
52 | 0.25 to 1 µM | 0.25 to 1 µM |  | C=C(C)C(=O)Nc1ccc(-c2c(C3=CC[C@H](C(=O)N4CCC[C@H]4C)CC3)c3c(N)ncnc3n2C)cc1 [Example 1006]
53 | < 0.1 µM | ≤ 0.1 µM |  | C#CCCCCn1c(-c2ccc(NC(=O)C(=C)C)cc2)c(-c2ccc(Oc3nccc(C)n3)c(F)c2)c2c(N)ncnc21 [Example 1007]
54 | 0.1 to 0.25 µM | 0.1 to 0.25 µM |  | C=C(C)C(=O)Nc1ccc(-c2c(C3=CC[C@@H](C(=O)N4CCC[C@H]4C)CC3)c3c(N)ncnc3n2C)cc1 [Example 1008]
55 | 1 to 100 µM |  | 0.25 to 1 µM | C=C(C)C(=O)Nc1ccc(-c2c(C3=CC[C@@](C)(C(=O)N4CCCC4)CC3)c3c(N)ncnc3n2C)cc1 [Example 1009]
56 | 1 to 100 µM | 0.25 to 1 µM |  | C=C(C)C(=O)Nc1nn(C)c(-c2c(-c3ccc(Oc4nccc(C)n4)cc3)c3c(N)ncnc3n2C)c1C [Example 1010]
57 | < 0.1 µM | ≤ 0.1 µM |  | C=C(C)C(=O)Nc1ccc(-c2c(C3=CC[C@@H](C(=O)N4CCCC45COC5)CC3)c3c(N)ncnc3n2C)c(F)c1 [Example 1011]
